29 molecules from patent US11414378B2, “Anti-fungals compounds targeting the synthesis of fungal sphingolipids” (THE RESEARCH FOUNDATION FOR THE STATE UNIVERSITY OF NEW YORK, priority 2017, dated 2022) can be followed below.

SMILES strings stand for the structures. Values after ≈ are worked out from the molar mass of the structure shown.

One assay relates to C. neoformans. The assay can be described thus: In vitro susceptibility (MIC80) assay. Format: cell-based. The note with it: Cryptococcus neoformans; lowest concentration that inhibited 80% of growth; YNB pH 7.0, HEPES, 37° C., 5% CO2. As to the method:
MICs was determined following the methods of the Clinical and Laboratory Standards Institutes (CLSI) with modifications. Yeast Nitrogen Base (YNB) medium (pH 7.0, 0.2% glucose) buffered with HEPES was used for MIC studies. […] The compound was serially diluted from 16 to 0.03 μg/ml, in a 96-well plate. The inoculum was prepared as described in the CLSI protocol M27A3 guidelines. The plates were incubated at 37° C. with 5% CO2 for 24 to 72 h and the optical density was measure at 450 nm. The MICs was determined as the lowest concentration of the compound that inhibited 80% of growth compared to the control.

The subject of another assay is C. neoformans cells. As to the kind of experiment: In vitro killing activity (K100) assay. Format: cell-based, Cryptococcus neoformans. The note with it: minimum concentration that kills 100% of C. neoformans cells in 48 h; for MFC: Cryptococcus neoformans. As for the experimental part:
C. neoformans cells from a culture grown overnight were washed in PBS and resuspended in YNB buffered with HEPES at pH 7.4. The cells were counted, and 2×10^4 cells were incubated with different concentration of compounds in a final volume of 10 ml with a final concentration of 0.5% DMSO. The tubes were then incubated at 37° C. with 5% CO2 on a rotary shaker at 200 rpm. Aliquots were taken at time points and diluted, and […] were plated onto Yeast Extract-Peptone-Dextrose (YPD) plates. YPD plates were incubated in a 30° C. incubator and after 48 h, the numbers of CFU were counted and recorded.

Usually MIC80 stands for an inhibitory concentration at the 80% level, which refers to growth in some studies and to a panel of isolates in others. A high value points to lower susceptibility. For the molecule `O=C(N/N=C/c1cc(OC(F)(F)F)ccc1O)c1ccc(Br)cc1` [Compound A1, 4-Bromo-N′-(2-hydroxy-5-trifluoromethoxybenzylidene)benzohydrazide], the MIC80 in the assay with C. neoformans was 0.25 µg/mL (≈ 0.62 µM). The MFC with C. neoformans cells is more than 1 µg/mL.
On the same counts, the results for `O=C(N/N=C/c1cc(F)ccc1O)c1ccc(Br)cc1` [Compound A2, 4-Bromo-N′-(5-fluoro-2-hydroxybenzylidene)benzohydrazide] are 1 µg/mL (≈ 2.97 µM) and more than 4 µg/mL.
On the same counts, the results for `O=C(N/N=C/c1cc(OC(F)(F)F)ccc1O)c1ccc(Br)cc1Br` [Compound A3, 2,4-Dibromo-N′-(2-hydroxy-5-trifluoromethoxybenzylidene)benzohydrazide] are 0.25 µg/mL (≈ 0.519 µM) and 2 µg/mL (≈ 4.15 µM).
As to `O=C(N/N=C/c1cc(F)ccc1O)c1ccc(Br)cc1Br` [Compound A4, 2,4-Dibromo-N′-(5-fluoro-2-hydroxybenzylidene)benzohydrazide], the MIC80 against C. neoformans was found to be 1 µg/mL (≈ 2.4 µM). Further, the MFC in the assay with C. neoformans cells is more than 4 µg/mL.
For `O=C(N/N=C/c1cc(Br)ccc1O)c1cccc(OC(F)F)c1` [Compound A5, 3-Difluoromethoxy-N′-(5-bromo-2-hydroxybenzylidene)benzohydrazide], in the assay on C. neoformans, the MIC80 turned out to be 0.12 µg/mL (≈ 0.312 µM). Also, in the assay on C. neoformans cells, the “K100* (μg/mL)” value was “Fungistatic”.
In the case of `O=C(N/N=C/c1cc(Br)cc(Br)c1O)c1cccc(OC(F)F)c1` [Compound A6, 3-Difluoromethoxy-N′-(3,5-dibromo-2-hydroxybenzylidene)benzohydrazide], in the assay with C. neoformans, the MIC80 is 0.12 µg/mL (≈ 0.259 µM). The molecule also returned an MFC against C. neoformans cells of 0.5 µg/mL (≈ 1.08 µM).
Molecule `O=C(N/N=C/c1cc(Br)ccc1O)c1ccc(OC(F)(F)F)cc1` [Compound A7, 4-Trifluoromethoxy-N′-(5-bromo-2-hydroxybenzylidene)benzohydrazide] registered an MIC80 in the assay with C. neoformans of 0.5 µg/mL (≈ 1.24 µM). In addition, the MFC with C. neoformans cells is more than 4 µg/mL.
On the same counts, the results for `O=C(N/N=C/c1cc(Br)ccc1O)c1ccc(C(F)(F)F)cc1F` [Compound A8, 2-Fluoro-4-trifluoromethyl-N′-(5-bromo-2-hydroxybenzylidene)benzohydrazide] are 0.5 µg/mL (≈ 1.23 µM) and 1 µg/mL (≈ 2.47 µM).
On the same counts, the results for `O=C(N/N=C/c1cc(Br)cc(Br)c1O)c1ccc(C(F)(F)F)cc1F` [Compound A9, 2-Fluoro-4-trifluoromethyl-N′-(3,5-dibromo-2-hydroxybenzylidene)benzohydrazide] are 0.12 µg/mL (≈ 0.248 µM) and 0.5 µg/mL (≈ 1.03 µM).
`O=C(N/N=C/c1cc(Br)cc(Br)c1O)c1cnc2ccccc2c1` [Compound A10, N′-(3,5-dibromo-2-hydroxybenzylidene) quinolinylhydrazide] gave an MIC80 in the assay on C. neoformans of 0.25 µg/mL (≈ 0.557 µM). Also, the “K100* (μg/mL)” value in the assay on C. neoformans cells is “Fungistatic”.
In the assay with C. neoformans, `N#Cc1ccc(C(=O)N/N=C/c2cc(Br)cc(Br)c2O)cc1` [Compound A11, 4-Cyano-N′-(3,5-dibromo-2-hydroxybenzylidene)benzohydrazide] registered an MIC80 of 0.06 µg/mL (≈ 0.142 µM). This molecule came in with an MFC with C. neoformans cells of more than 1 µg/mL.
Turning to `O=C(N/N=C/c1cc(Br)ccc1O)c1ccc(OC(F)(F)F)cc1F` [Compound A12, 2-Fluoro-4-trifluoromethoxy-N′-(5-bromo-2-hydroxybenzylidene)benzohydrazide], in the assay on C. neoformans, the MIC80 is 0.5 µg/mL (≈ 1.19 µM). The same molecule returned an MFC against C. neoformans cells of 0.5 µg/mL (≈ 1.19 µM).
Molecule `O=C(N/N=C/c1cc(Br)cc(Br)c1O)c1ccc(OC(F)(F)F)cc1F` [Compound A13, 2-Fluoro-4-trifluoromethoxy-N′-(3,5-dibromo-2-hydroxybenzylidene)-benzohydrazide] registered an MIC80 in the assay with C. neoformans of 0.06 µg/mL (≈ 0.12 µM). In addition, the MFC in the assay on C. neoformans cells turned out to be 0.5 µg/mL (≈ 1 µM).
`O=C(N/N=C/c1cc(C(F)(F)F)ccc1O)c1cccc(Br)c1` [Compound A14, 3-Bromo-N′-(2-hydroxy-5-trifluoromethylbenzylidene)benzohydrazide]: in the assay with C. neoformans, the MIC80 is 0.5 µg/mL (≈ 1.29 µM). This molecule also yielded an MFC against C. neoformans cells of more than 2 µg/mL.
On the same counts, the results for `CN(C)c1ccc(C(=O)N/N=C/c2ccc(Br)cc2O)cc1` [Compound A16] are 0.25 µg/mL (≈ 0.69 µM) and more than 1 µg/mL.
On the same counts, the results for `Cc1ccc(O)c(/C=N/NC(=O)c2cc(Br)cc(Br)c2O)c1` [Compound A17, 3,5-Dibromo-2-hydroxy-N′-(5-methyl-2-hydroxyphenylmethylidene)benzohydrazide] are 0.25 µg/mL (≈ 0.584 µM) and 0.25 µg/mL (≈ 0.584 µM).
On the same counts, the results for `O=C(N/N=C/c1ccc(Br)cc1O)c1cc(Br)cc(Br)c1O` [Compound A18, 3,5-Dibromo-2-hydroxy-N′-(4-bromo-2-hydroxybenzylidene)benzohydrazide] are 0.25 µg/mL (≈ 0.507 µM) and 0.25 µg/mL (≈ 0.507 µM).
Consider `O=C(N/N=C/c1ccc(Br)cc1O)c1ccc(OC(F)F)cc1` [Compound A21, 4-Difluoromethoxy-N′-(4-bromo-2-hydroxybenzylidene)benzohydrazide], for which the MIC80 in the assay with C. neoformans worked out at 0.12 µg/mL (≈ 0.312 µM).
The molecule `O=C(N/N=C/c1cc(Br)ccc1O)c1ccc(OC(F)F)cc1` [Compound A22, 4-Difluoromethoxy-N′-(5-bromo-2-hydroxybenzylidene)benzohydrazide] yielded an MIC80 against C. neoformans of 0.25 µg/mL (≈ 0.649 µM).
In the assay on C. neoformans, `O=C(N/N=C/c1cc(Br)cc(Br)c1O)c1ccc(OC(F)F)cc1` [Compound A23, 4-Difluoromethoxy-N′-(3,5-dibromo-2-hydroxybenzylidene)benzohydrazide] registered an MIC80 of 0.12 µg/mL (≈ 0.259 µM).
`O=C(N/N=C/c1cccc(Cl)c1O)c1cccc(C(F)(F)F)c1` [Compound A24, 3-Trifluoromethyl-N′-(3-chloro-2-hydroxybenzylidene)benzohydrazide] displayed an MIC80 with C. neoformans of 1 µg/mL (≈ 2.92 µM). The same molecule gave an MFC against C. neoformans cells of 4 µg/mL (≈ 11.7 µM).
On the same counts, the results for `O=C(N/N=C/c1cccc(Br)c1O)c1cccc(C(F)(F)F)c1` [Compound A25, 3-Trifluoromethyl-N′-(3-bromo-2-hydroxybenzylidene)benzohydrazide] are 1 µg/mL (≈ 2.58 µM) and 2 µg/mL (≈ 5.17 µM).
On the same counts, the results for `O=C(N/N=C/c1ccc(Br)cc1O)c1cccc(C(F)(F)F)c1` [Compound A26, 3-Trifluoromethyl-N′-(4-bromo-2-hydroxybenzylidene)benzohydrazide] are 0.5 µg/mL (≈ 1.29 µM) and 1 µg/mL (≈ 2.58 µM).
Turning to `O=C(N/N=C/c1cccc(Br)c1O)c1cccc(F)c1` [Compound A27, 3-Fluoro-N′-(3-bromo-2-hydroxybenzylidene)benzohydrazide], the MIC80 in the assay on C. neoformans was 1 µg/mL (≈ 2.97 µM). In addition, the MFC in the assay on C. neoformans cells turned out to be 2 µg/mL (≈ 5.93 µM).
In the case of `O=C(N/N=C/c1ccc(Br)cc1O)c1cccc(F)c1` [Compound A28, 3-Fluoro-N′-(4-bromo-2-hydroxybenzylidene)benzohydrazide], the MIC80 in the assay on C. neoformans worked out at 0.5 µg/mL (≈ 1.48 µM). In addition, the MFC against C. neoformans cells is more than 2 µg/mL.
In the assay on C. neoformans, `O=C(N/N=C/c1cc(Br)cc(Br)c1O)c1ccc(Br)c(Br)c1` [Compound A29, 3,4-Dibromo-N′-(3,5-dibromo-2-hydroxybenzylidene)benzohydrazide] showed an MIC80 of 0.06 µg/mL (≈ 0.108 µM). Further, in the assay with C. neoformans cells, the MFC is more than 0.5 µg/mL.
On the same counts, the results for `O=C(N/N=C/c1cc(Cl)cc(Cl)c1O)c1ccc(Br)c(Br)c1` [Compound A30, 3,4-Dibromo-N′-(3,5-dichloro-2-hydroxybenzylidene)benzohydrazide] are less than 0.03 µg/mL and more than 0.025 µg/mL.
On to `O=C(N/N=C/c1cc(Cl)ccc1O)c1ccc(Br)c(Br)c1` [Compound A31, 3,4-Dibromo-N′-(5-chloro-2-hydroxybenzylidene)benzohydrazide], for which the MIC80 in the assay on C. neoformans is 0.06 µg/mL (≈ 0.139 µM). Besides, in the assay with C. neoformans cells, the MFC was more than 0.5 µg/mL.
On the same counts, the results for `O=C(N/N=C/c1c(O)ccc2ccccc12)c1ccc(Br)c(Br)c1` [Compound A32, 3,4-Dibromo-N′-(2-hydroxy-1-naphthylidene)benzohydrazide] are 0.12 µg/mL (≈ 0.268 µM) and more than 1 µg/mL.
